# According to PubChem BioAssay (NCI):
#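 Each compound was tested at five concentrations against cells in 96-well plates for 48 hours. Here, GI50 denotes the concentration required for 50% inhibition of growth. TGI denotes the concentration required for complete inhibition of growth.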
# Legend:
# Experiment in all cases: growth of human tumour cells (NCI), 48 h
# RPMI-8226 leukemia = tested on: RPMI-8226 leukemia
# HOP-92 NSCLC = tested on: HOP-92 NSCLC
# SK-MEL-2 melanoma = tested on: SK-MEL-2 melanoma
# TK-10 renal = tested on: TK-10 renal
# UACC-257 melanoma = tested on: UACC-257 melanoma
# NCI-H522 lung = tested on: NCI-H522 lung
# CAKI-1 renal = tested on: CAKI-1 renal
# OVCAR-5 ovarian = tested on: OVCAR-5 ovarian
# COLO 205 colon = tested on: COLO 205 colon
# SF-539 CNS = tested on: SF-539 CNS
# SF-268 CNS = tested on: SF-268 CNS
# HS 578T breast = tested on: HS 578T breast
# CCRF-CEM leukemia = tested on: CCRF-CEM leukemia
# SN12C renal = tested on: SN12C renal
# IGROV1 ovarian = tested on: IGROV1 ovarian
# PC-3 prostate = tested on: PC-3 prostate
# BT-549 breast = tested on: BT-549 breast
# HCT-116 colon = tested on: HCT-116 colon
# DU-145 prostate = tested on: DU-145 prostate
# NCI-H460 lung = tested on: NCI-H460 lung
# SK-OV-3 ovarian = tested on: SK-OV-3 ovarian
# MDA-MB-435 = tested on: MDA-MB-435
# K-562 leukemia = tested on: K-562 leukemia
# A498 renal = tested on: A498 renal
# OVCAR-4 ovarian = tested on: OVCAR-4 ovarian
# T-47D breast = tested on: T-47D breast
# M14 melanoma = tested on: M14 melanoma
# HOP-62 NSCLC = tested on: HOP-62 NSCLC
# KM12 colon = tested on: KM12 colon
# A549 NSCLC = tested on: A549 NSCLC
# UACC-62 melanoma = tested on: UACC-62 melanoma
# 786-0 renal = tested on: 786-0 renal
# MCF7 breast = tested on: MCF7 breast
# SF-295 CNS = tested on: SF-295 CNS
# UO-31 renal = tested on: UO-31 renal
# MALME-3M melanoma = tested on: MALME-3M melanoma
# MDA-MB-231 breast = tested on: MDA-MB-231 breast
# U251 CNS = tested on: U251 CNS
# NCI/ADR-RES ovarian = tested on: NCI/ADR-RES ovarian
# SNB-75 CNS = tested on: SNB-75 CNS
# OVCAR-8 ovarian = tested on: OVCAR-8 ovarian
# SK-MEL-5 melanoma = tested on: SK-MEL-5 melanoma
# SW-620 colon = tested on: SW-620 colon
# MOLT-4 leukemia = tested on: MOLT-4 leukemia
# SR leukemia = tested on: SR leukemia
# RXF 393 renal = tested on: RXF 393 renal
# HL-60(TB) leukemia = tested on: HL-60(TB) leukemia
# NCI-H226 lung = tested on: NCI-H226 lung
# LOX IMVI melanoma = tested on: LOX IMVI melanoma
# HT29 colon = tested on: HT29 colon
# HCT-15 colon = tested on: HCT-15 colon
# SNB-19 CNS = tested on: SNB-19 CNS
# NCI-H23 lung = tested on: NCI-H23 lung
# OVCAR-3 ovarian = tested on: OVCAR-3 ovarian
# HCC-2998 colon = tested on: HCC-2998 colon
# EKVX NSCLC = tested on: EKVX NSCLC
# ACHN renal = tested on: ACHN renal
# MDA-N = tested on: MDA-N
# SK-MEL-28 melanoma = tested on: SK-MEL-28 melanoma
structure (smiles),measurement,setting,value
COc1ccc(C(O)c2cc3c(N)c(C(=O)Nc4cccc5ccccc45)sc3nc2C)cc1 (stereo not given),GI50,RPMI-8226 leukemia,4170 nM
same,TGI,RPMI-8226 leukemia,> 100000 nM
same,GI50,HOP-92 NSCLC,911 nM
same,TGI,HOP-92 NSCLC,> 27500 nM
same,GI50,SK-MEL-2 melanoma,811 nM
same,TGI,SK-MEL-2 melanoma,> 43200 nM
same,TGI,TK-10 renal,> 100000 nM
same,TGI,UACC-257 melanoma,> 32500 nM
same,GI50,NCI-H522 lung,157 nM
same,GI50,CAKI-1 renal,352 nM
same,TGI,CAKI-1 renal,> 100000 nM
same,GI50,OVCAR-5 ovarian,493 nM
same,TGI,OVCAR-5 ovarian,> 100000 nM
same,GI50,COLO 205 colon,457 nM
same,TGI,COLO 205 colon,> 33100 nM
same,GI50,SF-539 CNS,25 nM
same,TGI,SF-539 CNS,69.8 nM
same,GI50,SF-268 CNS,615 nM
same,TGI,SF-268 CNS,> 100000 nM
same,GI50,HS 578T breast,319 nM
same,TGI,HS 578T breast,> 100000 nM
same,GI50,CCRF-CEM leukemia,378 nM
same,TGI,CCRF-CEM leukemia,> 100000 nM
same,GI50,SN12C renal,629 nM
same,TGI,SN12C renal,> 46800 nM
same,GI50,IGROV1 ovarian,574 nM
same,TGI,IGROV1 ovarian,> 100000 nM
same,GI50,PC-3 prostate,470 nM
same,TGI,PC-3 prostate,> 100000 nM
same,GI50,BT-549 breast,385 nM
same,GI50,HCT-116 colon,318 nM
same,TGI,HCT-116 colon,> 64000 nM
same,GI50,DU-145 prostate,348 nM
same,TGI,DU-145 prostate,3120 nM
same,GI50,NCI-H460 lung,332 nM
same,TGI,NCI-H460 lung,5930 nM
same,GI50,SK-OV-3 ovarian,643 nM
same,TGI,SK-OV-3 ovarian,> 100000 nM
same,GI50,MDA-MB-435,127 nM
same,TGI,MDA-MB-435,415 nM
same,GI50,K-562 leukemia,314 nM
same,TGI,K-562 leukemia,> 53900 nM
same,GI50,A498 renal,200 nM
same,TGI,A498 renal,676 nM
same,GI50,OVCAR-4 ovarian,1580 nM
same,TGI,OVCAR-4 ovarian,> 100000 nM
same,GI50,T-47D breast,> 100000 nM
same,TGI,T-47D breast,> 100000 nM
same,GI50,M14 melanoma,307 nM
same,TGI,M14 melanoma,> 37700 nM
same,GI50,HOP-62 NSCLC,1270 nM
same,TGI,HOP-62 NSCLC,> 100000 nM
same,GI50,KM12 colon,328 nM
same,GI50,A549 NSCLC,381 nM
same,TGI,A549 NSCLC,> 100000 nM
same,GI50,UACC-62 melanoma,627 nM
same,TGI,UACC-62 melanoma,> 53200 nM
same,GI50,786-0 renal,499 nM
same,GI50,MCF7 breast,324 nM
same,TGI,MCF7 breast,> 90900 nM
same,GI50,SF-295 CNS,3400 nM
same,TGI,SF-295 CNS,> 100000 nM
same,GI50,UO-31 renal,622 nM
same,TGI,UO-31 renal,> 75400 nM
same,GI50,MALME-3M melanoma,544 nM
same,TGI,MALME-3M melanoma,> 60800 nM
same,GI50,MDA-MB-231 breast,393 nM
same,GI50,U251 CNS,372 nM
same,TGI,U251 CNS,> 42500 nM
same,GI50,NCI/ADR-RES ovarian,307 nM
same,TGI,NCI/ADR-RES ovarian,> 50500 nM
same,GI50,SNB-75 CNS,390 nM
same,TGI,SNB-75 CNS,> 100000 nM
same,GI50,OVCAR-8 ovarian,373 nM
same,TGI,OVCAR-8 ovarian,> 100000 nM
same,GI50,SK-MEL-5 melanoma,327 nM
same,TGI,SK-MEL-5 melanoma,1250 nM
same,GI50,SW-620 colon,284 nM
same,TGI,SW-620 colon,> 100000 nM
same,GI50,MOLT-4 leukemia,399 nM
same,TGI,MOLT-4 leukemia,> 33200 nM
same,GI50,SR leukemia,141 nM
same,GI50,RXF 393 renal,3230 nM
same,TGI,RXF 393 renal,> 100000 nM
same,GI50,HL-60(TB) leukemia,254 nM
same,TGI,HL-60(TB) leukemia,652 nM
same,GI50,NCI-H226 lung,416 nM
same,TGI,NCI-H226 lung,> 88000 nM
same,GI50,LOX IMVI melanoma,444 nM
same,TGI,LOX IMVI melanoma,> 39900 nM
same,GI50,HT29 colon,350 nM
same,GI50,HCT-15 colon,326 nM
same,TGI,HCT-15 colon,> 48700 nM
same,GI50,SNB-19 CNS,469 nM
same,TGI,SNB-19 CNS,> 100000 nM
same,GI50,NCI-H23 lung,562 nM
same,TGI,NCI-H23 lung,> 100000 nM
same,GI50,OVCAR-3 ovarian,2530 nM
same,TGI,OVCAR-3 ovarian,7500 nM
same,GI50,HCC-2998 colon,475 nM
same,TGI,HCC-2998 colon,> 54000 nM
same,GI50,EKVX NSCLC,486 nM
same,TGI,EKVX NSCLC,> 100000 nM
same,GI50,ACHN renal,550 nM
same,TGI,ACHN renal,> 55600 nM
c1ccc(COC[C@H]2O[C@@H](c3ccccc3)C[C@@H](OCc3ccccc3)C2OCc2ccccc2)cc1 (stereo not given in full),TGI,MDA-N,> 10000 nM
same,TGI,RPMI-8226 leukemia,> 10000 nM
same,TGI,TK-10 renal,> 10000 nM
same,TGI,CAKI-1 renal,> 10000 nM
same,TGI,SK-MEL-28 melanoma,> 10000 nM
same,TGI,COLO 205 colon,> 10000 nM
same,TGI,SF-268 CNS,> 10000 nM
same,TGI,CCRF-CEM leukemia,> 10000 nM
same,TGI,SN12C renal,> 10000 nM
same,TGI,IGROV1 ovarian,> 10000 nM
same,TGI,PC-3 prostate,> 10000 nM
same,TGI,DU-145 prostate,> 10000 nM
same,TGI,SK-OV-3 ovarian,> 10000 nM
same,TGI,T-47D breast,> 10000 nM
same,TGI,M14 melanoma,> 10000 nM
same,TGI,HOP-62 NSCLC,> 10000 nM
same,TGI,KM12 colon,> 10000 nM
same,TGI,A549 NSCLC,> 10000 nM
same,TGI,UACC-62 melanoma,> 10000 nM
same,TGI,786-0 renal,> 10000 nM
same,TGI,MCF7 breast,> 10000 nM
same,TGI,SF-295 CNS,> 10000 nM
same,TGI,MALME-3M melanoma,> 10000 nM
same,TGI,MDA-MB-231 breast,> 10000 nM
same,TGI,SNB-75 CNS,> 10000 nM
same,TGI,OVCAR-8 ovarian,> 10000 nM
same,TGI,SK-MEL-5 melanoma,> 10000 nM
same,TGI,SW-620 colon,> 10000 nM
same,TGI,MOLT-4 leukemia,> 10000 nM
same,TGI,SR leukemia,> 10000 nM
same,TGI,RXF 393 renal,> 10000 nM
same,TGI,HCT-15 colon,> 10000 nM
same,TGI,NCI-H23 lung,> 10000 nM
same,TGI,HCC-2998 colon,> 10000 nM
same,TGI,EKVX NSCLC,> 10000 nM
